In US11406629B2, “Solid forms comprising 4-amino-2-(2,6-dioxopiperidine-3-yl)isoindoline-1,3-dione and a coformer, compositions and methods of use thereof” (Celgene Corporation, priority 2013, dated 2022):
Converted amounts (≈) assume the structure as drawn. Read-outs that look alike come from different tables or passages of the source.

What was measured:
[1] = Slurry of Form B of pomalidomide in EtOH, 0.1 N HCl, or water (solid form conversion); assay type: physicochemical; conditions: slurring in EtOH, 0.1 N HCl, or water for 3 days
Description: In one embodiment, without being limited by particular theory, Form B is a metastable form of pomalidomide.

[2] = Solubility of pomalidomide in various solvents at ambient temperature (visual inspection, solvent aliquot addition); assay type: physicochemical
Experimental: Solubility was estimated by treating a weighed sample of pomalidomide with measured aliquots of the test solvent at ambient temperature, with shaking and/or sonication between aliquots. Dissolution was determined by visual inspection. Solubility numbers were calculated by […]. The actual solubilities may be greater than the numbers calculated because of the use of solvent aliquots that were too large or because of slow dissolution rates. […] The solubility number is expressed as “greater than” if dissolution occurred on addition of the first solvent aliquot.

| Solid form stability on slurrying [1] | solubility ([2]; Acetone) [µg/mL] | solubility ([2]; DMF:acetone (1:2)) [µg/mL] | solubility ([2]; Hexafluoroisopropanol) [µg/mL] | solubility ([2]; THF:water (95:5)) [µg/mL] | solubility ([2]; organic solvent or mixture, thermodynamic from solid, 2,2,2-trifluoroethanol, read-out: Solubility) [µg/mL] | solubility ([2]; organic solvent or mixture, thermodynamic from solid, 2-methyltetrahydrofuran, read-out: Solubility) [µg/mL] | solubility ([2]; organic solvent or mixture, thermodynamic from solid, Acetonitrile, read-out: Solubility) [µg/mL] | solubility ([2]; organic solvent or mixture, thermodynamic from solid, DMF, read-out: Solubility) [µg/mL] | solubility ([2]; organic solvent or mixture, thermodynamic from solid, DMF:methanol (1:1), read-out: Solubility) [µg/mL] | solubility ([2]; organic solvent or mixture, thermodynamic from solid, DMF:methanol (1:2), read-out: Solubility) [µg/mL] | solubility ([2]; organic solvent or mixture, thermodynamic from solid, Dichloromethane, read-out: Solubility) [µg/mL] | solubility ([2]; organic solvent or mixture, thermodynamic from solid, Methanol, read-out: Solubility) [µg/mL] | solubility ([2]; organic solvent or mixture, thermodynamic from solid, acetone:water (95:5), read-out: Solubility) [µg/mL] | solubility ([2]; tetrahydrofuran (THF)) [µg/mL] | SMILES |
| --- | --- | --- | --- | --- | --- | --- | --- | --- | --- | --- | --- | --- | --- | --- | --- |
| converts to Form A of pomalidomide |  |  |  |  |  |  |  |  |  |  |  |  |  |  | Nc1cccc2c1C(=O)N(C1CCC(=O)NC1=O)C2=O (stereo not drawn) [Form B of pomalidomide, 4-amino-2-(2,6-dioxopiperidine-3-yl)isoindoline-1,3-dione] |
|  | 900 (≈ 3.29 mM) | 6000 (≈ 22 mM) | 2300 (≈ 8.42 mM) | 3500 (≈ 12.8 mM) | < 1000 | < 1000 | < 1000 | > 5000 | 4200 (≈ 15.4 mM) | 2400 (≈ 8.78 mM) | < 1000 | < 1000 | < 1000 | 1100 (≈ 4.03 mM) | Nc1cccc2c1C(=O)N(C1CCC(=O)NC1=O)C2=O (stereo not drawn) [Pomalidomide, 4-amino-2-(2,6-dioxopiperidine-3-yl)isoindoline-1,3-dione] |
